Experimental data taken from patent US6696488B2, “(Hydroxyethyl)ureas as inhibitors of alzheimer's β-amyloid production” (The Brigham and Women's Hospital, Inc., priority 2000, dated 2004).

Experiments:
Aβ42 production = assay: Inhibition of Aβ42 production in APP-transfected cells, ELISA (Example 2); type: cell-based; settings: 4 hours, compared with total Aβ, FIG. 2
Excerpt: (§1) Cell Lines, Compound Treatments, and ELISAs. Cell lines were Chinese hamster ovary (CHO) and SK-N-SH human neuroblastoma cells stably transfected with the 751- or 695-amino acid splicing variants of APP, respectively, and the neo gene, and human embryonic kidney (HEK) 293 cells carrying the same genes (APP695 plus neo) but with the K595N/M596L (“Swedish”) double mutation of APP. Xia W et al., J Biol Chem 272:7977-7982 (1997); Citron M et al., Proc Natl Acad Sci USA 93:13170-13175 (1996). Cells were grown to confluence in Dulbecco's modified Eagle's medium containing 200 μg/ml G418 (Gibco BRL). Stock concentrations of the (hydroxyethyl)urea compounds of the invention in DMSO were added to media to reach the final concentrations with 1% DMSO. Positive controls contained 1% DMSO alone. […] The reporter antibody was detected using 3,3′,5,5′-tetramethylbenzidine (Pierce), measuring at 455 nm for calculating Aβ levels and at 595 nm for normalization.
(§2) Compound III-20 (shown above) or compound III-24 (identical to III-20 except R4 is L-phenylalanine O-methyl ester) was added over a range of concentrations (0.1-100 μM) to APP-transfected cells in culture as described. […] After 4 hours in culture, supernatants from test and control cultures were assayed by ELISA specific for Aβ peptides, and results were analyzed as percent total or specific Aβ produced compared to control.

[1] = tested on: total Aβ peptide production; assay: Inhibition of total Aβ peptide production in APP-transfected cells, ELISA (Example 2); type: cell-based; settings: 4 hours in culture, FIG. 1, read-out: concentration for 50 percent inhibition of total Aβ peptide production
Excerpt: as §1, §2

[2] = tested on: Aβ production in APP751-plus neo-transfected CHO cells; assay: Inhibition of Aβ production in APP751-plus neo-transfected CHO cells, ELISA (Example 3); type: cell-based, Chinese hamster; settings: Cricetulus griseus, 4 hours, 0.005 to 100 μM, 1% DMSO
Excerpt: Cell Lines, Compound Treatments, and ELISAs. Cell lines were Chinese hamster ovary (CHO) and SK-N-SH human neuroblastoma cells stably transfected with the 751- or 695-amino acid splicing variants of APP, respectively, and the neo gene, and human embryonic kidney (HEK) 293 cells carrying the same genes (APP695 plus neo) but with the K595N/M596L (“Swedish”) double mutation of APP. Xia W et al., J Biol Chem 272:7977-7982 (1997); Citron M et al., Proc Natl Acad Sci USA 93:13170-13175 (1996). Cells were grown to confluence in Dulbecco's modified Eagle's medium containing 200 μg/ml G418 (Gibco BRL). Stock concentrations of the (hydroxyethyl)urea compounds of the invention in DMSO were added to media to reach the final concentrations with 1% DMSO. Positive controls contained 1% DMSO alone. […] The reporter antibody was detected using 3,3′,5,5′-tetramethylbenzidine (Pierce), measuring at 455 nm for calculating Aβ levels and at 595 nm for normalization. […]
Transfected CHO cells were prepared and maintained as described in Example 2. […] Results were plotted as percent control Aβ produced versus (hydroxyethyl)urea compound concentration (μM), and (hydroxyethyl)urea compound concentrations at which production was inhibited by 50 percent (IC50) were determined.

Q: Which results are given for `COC(=O)[C@H](CC(C)C)NC(=O)[C@H](CC(C)C)NC(=O)N(Cc1ccccc1)C[C@@H](O)[C@H](Cc1ccccc1)NC(=O)OC(C)(C)C` [FΨFLL]?
A: inhibitory effect on the production of Aβ42 (Aβ42 production): closely followed the inhibition by compound III-20 of total Aβ production; IC50 [1]: ~1000 nM; IC50 [2]: 500 nM
